# PMC8263253, “Agonist and antagonist properties of an insect GABA-gated chloride channel (RDL) are influenced by heterologous expression conditions” (PLoS ONE, 2021)
# “And” between values parts separate entries of the source, which are not always exact repeats. Identical values can stand only once.
# Target: BtRDL (Bombus terrestris RDL GABA-gated chloride channel) (Bombus terrestris audax, UniProt A0A8F2J2P3)
# Assay: Two-electrode voltage-clamp recording of BtRDL expressed in Xenopus oocytes
# Format: cell-based
# Conditions: for IC50: IC50 for block of GABA responses
# Method: For convenience, these amounts of cRNA are referred to subsequently as 1 ng and 10 ng.
# Xenopus were anaesthetised by immersion in 0.2% MS222 for 15 minutes (or until complete anaesthesia was confirmed by absence of leg-withdrawal and righting reflex), followed by cranial concussion, decapitation and pithing. Xenopus oocytes were isolated, maintained and injected with cRNA, as described previously [24]. […] Application of compounds was controlled by LabChart software (AD Instruments) using a BPS-8 solenoid valve solution exchange system (ALA Scientific Inc). Typically, agonists were applied for 5 s or until a plateau in the response was observed. Antagonists were pre-applied for 30 s and then co-applied with agonist for 5s or until a plateau in the response. was observed.
# Chain of BtRDL (Bombus terrestris RDL GABA-gated chloride channel) (A0A8F2J2P3 entry or part of it): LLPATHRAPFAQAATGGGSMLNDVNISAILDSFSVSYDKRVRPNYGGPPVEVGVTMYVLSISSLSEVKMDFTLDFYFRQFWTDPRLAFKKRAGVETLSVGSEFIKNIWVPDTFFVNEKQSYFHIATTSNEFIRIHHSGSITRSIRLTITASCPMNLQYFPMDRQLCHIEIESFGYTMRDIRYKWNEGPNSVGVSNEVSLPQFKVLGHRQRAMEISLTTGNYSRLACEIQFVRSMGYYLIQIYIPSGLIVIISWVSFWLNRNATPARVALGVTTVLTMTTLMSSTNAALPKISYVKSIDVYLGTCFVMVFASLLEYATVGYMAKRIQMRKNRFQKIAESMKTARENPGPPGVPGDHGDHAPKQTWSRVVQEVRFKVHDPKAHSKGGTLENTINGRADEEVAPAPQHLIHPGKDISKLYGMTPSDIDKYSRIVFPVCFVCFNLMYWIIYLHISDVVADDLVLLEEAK
smiles,measurement,setting,value
C=C(C)[C@@H]1[C@H]2OC(=O)[C@@H]1[C@]1(O)C[C@H]3O[C@]34C(=O)O[C@H]2[C@]14C [picrotoxinin],IC50,"BtRDL with high apparent affinity for GABA (10 ng cRNA, pGEMHE NheI, three-days), EC50 concentration of GABA 1 μM",14 ± 1.6 µM
same,IC50,"BtRDL with low apparent affinity for GABA (1 ng cRNA, pGEMHE XbaI, three-days), EC50 concentration of GABA 30 μM",1.7 ± 0.3 µM
"CC(C)c1cccc(C(C)C)c1O [Propofol, propofol]",EC50,"propofol apparent affinity (agonist activation), BtRDL with high apparent affinity for GABA (10 ng cRNA +3'UTR, three-days)",82.9 ± 6.4 µM
same,EC50,"propofol apparent affinity (agonist activation), BtRDL with low apparent affinity for GABA (1 ng cRNA +3'UTR, one-day)",198 ± 19.1 µM
"NCCCC(=O)O [GABA, γ-aminobutyric acid]",maximum current (Imax) to GABA,"1 ng BtRDL cRNA lacking 3'UTR, 1–3 days post-injection",0.67 ± 0.04 μA
same,maximum current (Imax) to GABA,BtRDL 1 ng cRNA (+3'UTR) co-expressed with DmNACHO,3.4 ± 0.6 μA
same,EC50,"GABA EC50, pGEMHE-BtRDL digested with NheI (3'UTR retained), 1 ng cRNA, three-days post-injection",4 ± 1.1 µM
same,EC50,"GABA EC50, pGEMHE-BtRDL digested with XbaI (3'UTR removed), 1 ng cRNA, three-days post-injection",27.6 ± 1.6 µM
same,EC50,"GABA EC50, pSP64GL-BtRDL cRNA containing 3'UTR, 1 ng, BtRDL expressed alone, three-days post-injection",3.7 ± 0.4 µM
same,EC50,"GABA EC50, pSP64GL-BtRDL cRNA lacking 3'UTR, 1 ng, three-days post-injection",31.4 ± 2.1 µM
same,EC50,"GABA apparent affinity EC50, BtRDL 1 ng cRNA (+3'UTR) + 10 ng cRNA CeRIC-3, Day 1",10.6 ± 1.1 µM
same,EC50,"GABA apparent affinity EC50, BtRDL 1 ng cRNA (+3'UTR) + 10 ng cRNA CeRIC-3, Day 2",5 ± 0.9 µM
same,EC50,"GABA apparent affinity EC50, BtRDL 1 ng cRNA (+3'UTR) + 10 ng cRNA CeRIC-3, Day 3",4.2 ± 1 µM
same,EC50,"GABA apparent affinity EC50, BtRDL 1 ng cRNA (+3'UTR) + 10 ng cRNA DmNACHO, Day 1",21 ± 1.1 µM
same,EC50,"GABA apparent affinity EC50, BtRDL 1 ng cRNA (+3'UTR) + 10 ng cRNA DmNACHO, Day 2",14.8 ± 1.1 µM
same,EC50,"GABA apparent affinity EC50, BtRDL (+3'UTR), 1 ng cRNA, Day 2 post-injection",4.4 ± 0.7 µM
same,EC50,"GABA apparent affinity EC50, BtRDL (+3'UTR), 1 ng cRNA, Day 3 post-injection",3.9 ± 0.6 µM
same,EC50,"GABA apparent affinity EC50, BtRDL (+3'UTR), 10 ng cRNA, Day 1 post-injection",10.8 ± 1.2 µM
same,EC50,"GABA apparent affinity EC50, BtRDL (+3'UTR), 10 ng cRNA, Day 2 post-injection",2 ± 0.7 µM
same,EC50,"GABA apparent affinity EC50, BtRDL (+3'UTR), 10 ng cRNA, Day 3 post-injection",1.8 ± 0.4 µM
same,EC50,"GABA apparent affinity EC50, BtRDL (-3'UTR), 1 ng cRNA, Day 1 post-injection",29.7 ± 1.1 µM
same,EC50,"GABA apparent affinity EC50, BtRDL (-3'UTR), 1 ng cRNA, Day 2 post-injection",28.3 ± 1.1 µM
same,EC50,"GABA apparent affinity EC50, BtRDL (-3'UTR), 1 ng cRNA, Day 3 post-injection",29.4 ± 1 µM
same,EC50,"GABA apparent affinity EC50, BtRDL (-3'UTR), 10 ng cRNA, Day 1 post-injection",27.3 ± 1.1 µM
same,EC50,"GABA apparent affinity EC50, BtRDL (-3'UTR), 10 ng cRNA, Day 2 post-injection",10.8 ± 1 µM
same,EC50,"GABA apparent affinity EC50, BtRDL (-3'UTR), 10 ng cRNA, Day 3 post-injection",12.5 ± 1 µM
same,EC50,"GABA apparent affinity EC50, BtRDL alone, 1 ng cRNA (+3'UTR), Day 2",4.6 ± 0.9 µM
same,EC50,"apparent affinity for GABA, BtRDL populations with intermediate apparent affinities (summary in discussion)",~4 µM and ~12 µM
same,EC50,"apparent affinity for GABA, BtRDL receptors with high apparent affinity (summary in discussion)",~30 µM
same,EC50,"apparent affinity for GABA, BtRDL receptors with low apparent affinity (summary in discussion)",~2 µM
